According to patent US20230158102A1 (priority 2020, published 2023):
Read-outs that look alike come from different tables or passages of the source.

Key:
eEF1A = molecular target: T1, eEF1A (Oryctolagus cuniculus, UniProt Q71V39); conditions: 14C-plitidepsin, eEF1A purified from rabbit muscle; cited from earlier work
T1 construct: eEF1A purified from rabbit muscle; from tissue; host or cells: rabbit muscle

NFκB = conditions: tumour cells, early in vitro studies; cited from earlier work
THP-1 cells = test: Proinflammatory cytokine secretion in stimulated THP-1 cells; type: cell-based; conditions: THP-1 cells stimulated with pathogen-associated molecular patterns-mimicking compounds
Description: In vitro studies were performed using THP-1 cells, a spontaneously immortalised monocyte-like cell line derived from the peripheral blood of a childhood case of acute monocytic leukaemia, that is widely used for investigating monocyte structure and function.

[1] = cancer patients, single-agent plitidepsin; cited from earlier work
SARS-CoV-2 [2] = test: Mouse model of adenovirus-mediated hACE2 infected with SARS-CoV-2; type: in vivo
CD45+ cells = test: Ex vivo cytokine expression (IL 6, IL 10, TNFα) in LPS-B5 stimulated CD45+ cells from broncho-alveolar lavages of treated mice; conditions: CD45+ cells from plitidepsin treated mice
Source text: An ex vivo study assessed the effect of plitidepsin on expression of the cytokines IL 6, IL 10, and TNFα in the lungs of mice.

SARS-CoV-2 [3] = test: Transgenic K18-hACE2 mice infected with SARS-CoV-2; type: in vivo
Vero E6 cells = conditions: Vero E6, absence of virus, 3 days
SARS-CoV-2 (COVID-19) = test: Study APLICOV-PC (NCT04382066): efficacy in patients hospitalised for COVID-19; type: in vivo, human; conditions: for Patients requiring oxygen therapy at Day 7, (%): 168 h; for Patients discharged from hospital by Day 8, (%): 192 h

T1 sequence (Q71V39 whole entry): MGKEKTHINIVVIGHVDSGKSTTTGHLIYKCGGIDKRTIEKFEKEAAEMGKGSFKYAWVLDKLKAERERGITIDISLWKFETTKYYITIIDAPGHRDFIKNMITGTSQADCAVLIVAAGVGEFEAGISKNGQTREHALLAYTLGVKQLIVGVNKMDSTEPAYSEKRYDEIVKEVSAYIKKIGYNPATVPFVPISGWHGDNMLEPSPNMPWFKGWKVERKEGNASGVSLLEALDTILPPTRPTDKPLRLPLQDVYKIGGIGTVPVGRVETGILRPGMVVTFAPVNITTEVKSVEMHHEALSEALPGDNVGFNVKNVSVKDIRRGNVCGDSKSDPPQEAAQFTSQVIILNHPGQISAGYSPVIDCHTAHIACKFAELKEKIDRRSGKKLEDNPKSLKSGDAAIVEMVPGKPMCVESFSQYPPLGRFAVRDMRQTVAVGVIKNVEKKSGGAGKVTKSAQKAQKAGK

## CC[C@H](C)[C@H]1NC(=O)[C@@H](NC(=O)[C@@H](CC(C)C)N(C)C(=O)[C@@H]2CCCN2C(=O)C(C)=O)[C@@H](C)OC(=O)[C@H](Cc2ccc(OC)cc2)N(C)C(=O)[C@@H]2CCCN2C(=O)[C@H](CC(C)C)NC(=O)[C@@H](C)C(=O)[C@H](C(C)C)OC(=O)C[C@@H]1O [PLD, (−)-(3S,6R,7S,10R,11S,15S,17S,20S,25aS)-11-hydroxy-3-(4-methoxybenzyl)-2,6,17-trimethyl-15-(1-methylethyl)-7-[[(2R)-4-methyl-2-[methyl[[(2S)-1-(2-oxopropanoyl)pyrrolidin-2-yl]carbonyl]amino]pentanoyl]amino]-10-[(1S)-1-methylpropyl]-20-(2-methylpropyl)tetradecahydro-15H-pyrrolo[2,1-f]-[1,15,4,7,10,20]dioxatetrazacyclotricosine-1,4,8,13,16,18,21(17H)-heptone]
eEF1A
  Binding affinity: high affinity
  Rate of dissociation: low rate of dissociation
NFκB
  Effect on NFκB: induces down-regulation of NFκB
THP-1 cells
  Secretion of proinflammatory cytokines: significantly reduced the secretion of the proinflammatory cytokines
[1]
  AE asthenia/fatigue: 83%
  AE constipation: 29%
  AE diarrhoea: 31%
  AE nausea: 64%
  AE pyrexia: 28%
  AE vomiting: 38%
SARS-CoV-2 [2]
  Antiviral effects in vivo: potent antiviral effects in vivo
CD45+ cells
  IL 6, IL 10 and TNFα production upon LPS-B5 stimulation compared with nonstimulated controls: failed to show a marked increase in IL 6, IL 10, and TNFα
SARS-CoV-2 [3]
  Antiviral effects in vivo: potent antiviral effects in vivo
Vero E6 cells
  Cytotoxic effects of the drug at concentrations inhibiting viral-induced cytopathic effects: no cytotoxic effects of the drug were observed
SARS-CoV-2 (COVID-19)
  Mean time from baseline until undetectable viral load: 11 days
  Mortality from Day 1 to Day 31, (%): (4.5) %
  Patients requiring ICU admission from Day 1 to Day 7, (%): (11.4) %
  Patients requiring ICU admission from Day 1 to Day 15, (%): (13.6) %
  Patients requiring ICU admission from Day 1 to Day 31, (%): (13.6) %
  Patients requiring invasive mechanical ventilation and/or ICU admission from Day 1 to Day 7, (%): (11.4) %
  Patients requiring invasive mechanical ventilation and/or ICU admission from Day 1 to Day 15, (%): (13.6) %
  Patients requiring invasive mechanical ventilation and/or ICU admission from Day 1 to Day 31, (%): (13.6) %
  Patients requiring noninvasive mechanical ventilation from Day 1 to Day 7, (%): (9.1) %
  Patients requiring noninvasive mechanical ventilation from Day 1 to Day 15, (%): (11.4) %
  Patients requiring noninvasive mechanical ventilation from Day 1 to Day 31, (%): (13.6) %
SARS-CoV-2 (COVID-19); 1.5 mg
  Mean time from baseline until undetectable viral load: 7 days
  Mortality from Day 1 to Day 31, (%): (7.1) %
  Patients requiring ICU admission from Day 1 to Day 7, (%): (14.3) %
  Patients requiring ICU admission from Day 1 to Day 15, (%): (14.3) %
  Patients requiring ICU admission from Day 1 to Day 31, (%): (14.3) %
  Patients requiring invasive mechanical ventilation and/or ICU admission from Day 1 to Day 7, (%): (14.3) %
  Patients requiring invasive mechanical ventilation and/or ICU admission from Day 1 to Day 15, (%): (14.3) %
  Patients requiring invasive mechanical ventilation and/or ICU admission from Day 1 to Day 31, (%): (14.3) %
  Patients requiring noninvasive mechanical ventilation from Day 1 to Day 7, (%): (21.4) %
  Patients requiring noninvasive mechanical ventilation from Day 1 to Day 15, (%): (21.4) %
  Patients requiring noninvasive mechanical ventilation from Day 1 to Day 31, (%): (21.4) %
  Patients requiring oxygen therapy at Day 7, (%): (71.4) %
  Patients discharged from hospital by Day 8, (%): (42.9) %
SARS-CoV-2 (COVID-19); 1.5 mg, 360 h
  Patients discharged from hospital by Day 15, (%): (78.6) %
  Patients requiring oxygen therapy at Day 15, (%): (28.6) %
SARS-CoV-2 (COVID-19); 1.5 mg, 744 h
  Patients discharged from hospital by Day 31, (%): (92.9) %
SARS-CoV-2 (COVID-19); 2 mg
  Mean time from baseline until undetectable viral load: 13 days
  Patients requiring ICU admission from Day 1 to Day 7, (%): (6.7) %
  Patients requiring ICU admission from Day 1 to Day 15, (%): (6.7) %
  Patients requiring ICU admission from Day 1 to Day 31, (%): (6.7) %
  Patients requiring invasive mechanical ventilation and/or ICU admission from Day 1 to Day 7, (%): (6.7) %
  Patients requiring invasive mechanical ventilation and/or ICU admission from Day 1 to Day 15, (%): (6.7) %
  Patients requiring invasive mechanical ventilation and/or ICU admission from Day 1 to Day 31, (%): (6.7) %
  Patients requiring noninvasive mechanical ventilation from Day 1 to Day 31, (%): (6.7) %
  Patients requiring oxygen therapy at Day 7, (%): (66.7) %
  Patients discharged from hospital by Day 8, (%): (60.0) %
